Consider 17 compounds from US10308639B2, “Phosphatidylinositol 3-kinase inhibitors” (Gilead Sciences, Inc., priority 2014, dated 2019).

Holding throughout (format): biochemical
One experiment addresses T1, PI3Kβ (Homo sapiens, UniProt P42338).
T1 construct: made in house
The experiment can be described thus: TR-FRET enzymatic activity assay, PI3Kβ. Particulars: Table 2; TR-FRET, 2x Km ATP, 30 minutes at 25° C. On the technique in general: In TR-FRET formats the signal depends on donor and acceptor labels being close together.

A further experiment has as its target T2, PI3Kδ (Homo sapiens, UniProt O00329).
T2 construct: made in house
The experiment can be described thus: TR-FRET enzymatic activity assay, PI3Kδ. The conditions noted are these: Table 2; TR-FRET, 2x Km ATP, 30 minutes at 25° C.

The target of a further experiment is T3, PI3Kγ (Homo sapiens, UniProt P48736).
T3 construct: made in house
The experiment can be described thus: TR-FRET enzymatic activity assay, PI3Kγ. The conditions noted are these: Table 2; TR-FRET, 2x Km ATP, 30 minutes at 25° C.; read-out: PI3Kγ IC50. On the procedure: The compounds of formula (I) were characterized for their enzymatic activity against the PI3K isoforms. The activities were measured using a time-resolved fluorescence resonance energy transfer (TR-FRET) assay.

T3 sequence (P48736 whole entry): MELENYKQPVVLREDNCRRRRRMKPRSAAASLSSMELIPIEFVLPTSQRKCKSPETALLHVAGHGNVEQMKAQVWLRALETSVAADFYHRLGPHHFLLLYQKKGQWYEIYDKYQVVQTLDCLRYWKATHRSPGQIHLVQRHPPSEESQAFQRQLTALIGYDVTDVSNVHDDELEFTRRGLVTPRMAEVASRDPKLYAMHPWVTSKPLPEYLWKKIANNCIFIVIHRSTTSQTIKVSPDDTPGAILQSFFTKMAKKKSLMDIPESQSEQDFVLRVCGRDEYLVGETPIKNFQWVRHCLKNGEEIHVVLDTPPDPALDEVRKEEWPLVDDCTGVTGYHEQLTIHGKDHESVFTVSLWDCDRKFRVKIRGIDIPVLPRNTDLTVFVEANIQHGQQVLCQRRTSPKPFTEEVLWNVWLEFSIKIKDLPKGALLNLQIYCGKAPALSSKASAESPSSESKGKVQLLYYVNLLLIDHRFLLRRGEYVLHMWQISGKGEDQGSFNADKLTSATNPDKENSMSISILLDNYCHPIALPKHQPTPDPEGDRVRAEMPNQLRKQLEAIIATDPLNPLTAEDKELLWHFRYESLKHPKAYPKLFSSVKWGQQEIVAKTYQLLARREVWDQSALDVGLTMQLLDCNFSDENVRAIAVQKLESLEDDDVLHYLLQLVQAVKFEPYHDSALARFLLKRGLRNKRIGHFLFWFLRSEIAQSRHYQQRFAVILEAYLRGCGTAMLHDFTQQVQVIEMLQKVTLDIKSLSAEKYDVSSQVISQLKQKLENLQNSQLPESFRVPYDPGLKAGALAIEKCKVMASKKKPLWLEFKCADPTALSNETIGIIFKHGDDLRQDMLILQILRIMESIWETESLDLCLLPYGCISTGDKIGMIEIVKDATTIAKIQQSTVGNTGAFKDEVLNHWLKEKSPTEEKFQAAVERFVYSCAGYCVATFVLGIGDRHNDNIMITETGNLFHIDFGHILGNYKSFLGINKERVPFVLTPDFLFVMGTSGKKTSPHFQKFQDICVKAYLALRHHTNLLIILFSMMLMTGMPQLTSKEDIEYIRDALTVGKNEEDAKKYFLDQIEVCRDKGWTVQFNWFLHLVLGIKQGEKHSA
T2 sequence (O00329 whole entry): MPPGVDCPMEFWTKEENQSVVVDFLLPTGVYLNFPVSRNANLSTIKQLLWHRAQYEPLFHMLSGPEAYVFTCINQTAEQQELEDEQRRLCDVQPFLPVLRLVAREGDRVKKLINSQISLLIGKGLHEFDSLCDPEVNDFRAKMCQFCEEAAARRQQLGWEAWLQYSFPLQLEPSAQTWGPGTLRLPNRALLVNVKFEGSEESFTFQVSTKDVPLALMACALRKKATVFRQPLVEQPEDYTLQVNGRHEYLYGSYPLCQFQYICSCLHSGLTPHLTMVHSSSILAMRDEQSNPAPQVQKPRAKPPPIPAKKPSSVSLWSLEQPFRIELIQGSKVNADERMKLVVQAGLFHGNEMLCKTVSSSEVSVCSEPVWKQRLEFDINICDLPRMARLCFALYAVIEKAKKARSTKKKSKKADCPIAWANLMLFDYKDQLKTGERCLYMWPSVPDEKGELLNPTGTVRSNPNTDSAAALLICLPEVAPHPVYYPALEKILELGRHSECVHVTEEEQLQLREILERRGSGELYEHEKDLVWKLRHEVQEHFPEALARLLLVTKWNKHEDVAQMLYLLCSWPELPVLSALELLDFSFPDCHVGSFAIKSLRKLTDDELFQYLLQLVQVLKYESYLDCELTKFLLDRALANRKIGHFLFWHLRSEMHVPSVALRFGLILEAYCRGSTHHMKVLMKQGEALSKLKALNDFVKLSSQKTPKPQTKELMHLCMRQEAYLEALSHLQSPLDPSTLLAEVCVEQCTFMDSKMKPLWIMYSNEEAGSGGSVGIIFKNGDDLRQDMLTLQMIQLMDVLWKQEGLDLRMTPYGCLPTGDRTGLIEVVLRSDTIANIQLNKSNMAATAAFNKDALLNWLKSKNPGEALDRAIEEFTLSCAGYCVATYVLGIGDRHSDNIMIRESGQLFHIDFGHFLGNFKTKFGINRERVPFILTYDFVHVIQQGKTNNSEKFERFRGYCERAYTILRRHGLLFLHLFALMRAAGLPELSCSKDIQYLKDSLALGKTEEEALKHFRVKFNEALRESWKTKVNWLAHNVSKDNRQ
T2 sequence (P27986 whole entry partner): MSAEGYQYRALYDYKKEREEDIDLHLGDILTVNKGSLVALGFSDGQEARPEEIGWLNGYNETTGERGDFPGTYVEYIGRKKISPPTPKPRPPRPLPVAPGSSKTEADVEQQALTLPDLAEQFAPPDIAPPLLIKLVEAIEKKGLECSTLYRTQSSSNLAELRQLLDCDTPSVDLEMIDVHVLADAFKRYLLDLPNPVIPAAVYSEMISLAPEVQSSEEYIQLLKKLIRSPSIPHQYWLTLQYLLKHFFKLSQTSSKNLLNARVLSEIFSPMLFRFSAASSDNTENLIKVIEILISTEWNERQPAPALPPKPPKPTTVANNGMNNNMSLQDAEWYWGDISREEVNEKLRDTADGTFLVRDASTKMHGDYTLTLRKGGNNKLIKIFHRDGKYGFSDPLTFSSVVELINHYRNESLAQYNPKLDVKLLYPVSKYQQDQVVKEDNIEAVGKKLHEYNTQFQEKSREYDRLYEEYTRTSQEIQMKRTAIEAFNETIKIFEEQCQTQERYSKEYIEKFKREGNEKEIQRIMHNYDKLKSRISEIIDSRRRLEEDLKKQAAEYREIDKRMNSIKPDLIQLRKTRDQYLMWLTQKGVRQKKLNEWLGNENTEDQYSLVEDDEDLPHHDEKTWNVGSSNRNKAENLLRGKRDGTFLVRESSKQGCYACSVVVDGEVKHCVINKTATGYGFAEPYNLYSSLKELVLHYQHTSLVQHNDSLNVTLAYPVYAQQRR
T1 sequence (P42338 whole entry): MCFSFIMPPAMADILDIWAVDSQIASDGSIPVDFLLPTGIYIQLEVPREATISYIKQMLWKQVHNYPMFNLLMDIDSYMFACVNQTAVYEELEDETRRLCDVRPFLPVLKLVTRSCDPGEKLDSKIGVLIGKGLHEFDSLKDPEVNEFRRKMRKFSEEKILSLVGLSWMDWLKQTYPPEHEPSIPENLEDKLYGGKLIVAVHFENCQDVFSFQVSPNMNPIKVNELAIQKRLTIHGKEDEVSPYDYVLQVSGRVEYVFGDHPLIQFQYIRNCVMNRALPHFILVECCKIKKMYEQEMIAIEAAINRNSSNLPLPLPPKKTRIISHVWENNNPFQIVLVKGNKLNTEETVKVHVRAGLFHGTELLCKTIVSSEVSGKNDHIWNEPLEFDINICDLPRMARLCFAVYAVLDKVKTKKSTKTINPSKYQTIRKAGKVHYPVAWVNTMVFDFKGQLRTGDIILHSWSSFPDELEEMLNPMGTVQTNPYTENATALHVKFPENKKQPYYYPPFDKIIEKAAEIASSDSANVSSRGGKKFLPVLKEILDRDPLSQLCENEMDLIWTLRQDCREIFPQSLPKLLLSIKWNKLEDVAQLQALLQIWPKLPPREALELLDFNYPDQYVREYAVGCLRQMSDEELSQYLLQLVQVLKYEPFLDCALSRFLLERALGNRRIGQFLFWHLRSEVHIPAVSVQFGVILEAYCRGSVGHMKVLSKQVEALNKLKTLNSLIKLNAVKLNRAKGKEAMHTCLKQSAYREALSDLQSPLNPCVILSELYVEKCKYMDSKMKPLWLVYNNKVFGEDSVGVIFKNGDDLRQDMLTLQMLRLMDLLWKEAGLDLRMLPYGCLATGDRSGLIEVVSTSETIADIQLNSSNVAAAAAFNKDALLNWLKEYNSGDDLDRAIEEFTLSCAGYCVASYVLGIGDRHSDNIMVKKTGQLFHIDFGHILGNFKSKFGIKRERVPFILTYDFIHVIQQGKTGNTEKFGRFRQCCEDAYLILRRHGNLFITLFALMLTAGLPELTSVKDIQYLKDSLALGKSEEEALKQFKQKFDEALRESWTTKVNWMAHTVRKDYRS
T1 sequence (P27986 whole entry partner): as the sequence (P27986 whole entry partner) above

Regarding `N#Cc1c(N)nc(N)nc1N1CCC[C@H]1c1nc2cccc(Cl)c2c(=O)n1-c1cc[nH]n1` [Compound 24, (S)-2,4-diamino-6-(2-(5-chloro-4-oxo-3-(1H-pyrazol-3-yl)-3,4-dihydroquinazolin-2-yl)pyrrolidin-1-yl)pyrimidine-5-carbonitrile], the half-maximal inhibitory concentration (IC50) (as a rule, the concentration that gives 50% inhibition) was found to be 22 nM at PI3Kβ, 4 nM on PI3Kδ and 780 nM at PI3Kγ.

With `O=c1c2c(Cl)cccc2nc([C@@H](Nc2ncnc3scnc23)C2CC2)n1-c1cn[nH]c1` [Compound 25, (S)-5-chloro-2-(cyclopropyl(thiazolo[5,4-d]pyrimidin-7-ylamino)methyl)-3-(1H-pyrazol-4-yl)quinazolin-4(3H)-one], the 50% inhibitory concentration (IC50) against PI3Kβ was 5 nM; on PI3Kδ, 1 nM; at PI3Kγ, 130 nM.

As to `O=c1c2c(Cl)cccc2nc([C@@H](Nc2ncnc3scnc23)C2CC2)n1-c1cc[nH]n1` [Compound 26, (S)-5-chloro-2-(cyclopropyl(thiazolo[5,4-d]pyrimidin-7-ylamino)methyl)-3-(1H-pyrazol-3-yl)quinazolin-4(3H)-one], the figures for the half-inhibitory concentration (IC50) at PI3Kβ, at PI3Kδ and at PI3Kγ were 3 nM, 0.6 nM and 1300 nM, respectively.

As for `Cc1nc(N)nc(N[C@H](c2nc3cccc(Cl)c3c(=O)n2-c2cn[nH]c2)C2CC2)c1C#N` [Compound 27, (S)-2-amino-4-(((5-chloro-4-oxo-3-(1H-pyrazol-4-yl)-3,4-dihydroquinazolin-2-yl)(cyclopropyl)methyl)amino)-6-methylpyrimidine-5-carbonitrile], the results for the IC50 at PI3Kβ, against PI3Kδ and at PI3Kγ were 2 nM, 0.7 nM and 71 nM, respectively.

For the compound `N#Cc1c(N)nc(N)nc1N[C@H](c1nc2c(Cl)cccc2c(=O)n1-c1cn[nH]c1)C1CC1` [Compound 29, (S)-2,4-diamino-6-(((8-chloro-4-oxo-3-(1H-pyrazol-4-yl)-3,4-dihydroquinazolin-2-yl)(cyclopropyl)methyl)amino)pyrimidine-5-carbonitrile], the results for the half-inhibitory concentration (IC50) against PI3Kβ, on PI3Kδ and at PI3Kγ were 3 nM, 6 nM and 440 nM, respectively.

For the compound `N#Cc1c(N)nc(N)nc1N[C@H](c1nc2c(Cl)cccc2c(=O)n1-c1cc[nH]n1)C1CC1` [Compound 30, (S)-2,4-diamino-6-(((8-chloro-4-oxo-3-(1H-pyrazol-3-yl)-3,4-dihydroquinazolin-2-yl)(cyclopropyl)methyl)amino)pyrimidine-5-carbonitrile], the IC50 came out at 2 nM at PI3Kβ, 3 nM against PI3Kδ and 1300 nM on PI3Kγ.

`N#Cc1c(N)nc(N)nc1N[C@H](c1nc2c(Cl)ccc(Cl)c2c(=O)n1-c1cn[nH]c1)C1CC1` [Compound 31, (S)-2,4-diamino-6-((cyclopropyl(5,8-dichloro-4-oxo-3-(1H-pyrazol-4-yl)-3,4-dihydroquinazolin-2-yl)methyl)amino)pyrimidine-5-carbonitrile]: the concentration for half-maximal inhibition (IC50) stood at 1 nM against PI3Kβ, 1 nM against PI3Kδ and 160 nM at PI3Kγ.

`N#Cc1c(N)nc(N)nc1N[C@H](c1nc2c(Cl)ccc(Cl)c2c(=O)n1-c1cc[nH]n1)C1CC1` [Compound 32, (S)-2,4-diamino-6-((cyclopropyl(5,8-dichloro-4-oxo-3-(1H-pyrazol-3-yl)-3,4-dihydroquinazolin-2-yl)methyl)amino)pyrimidine-5-carbonitrile]: the values for the IC50 against PI3Kβ, against PI3Kδ and on PI3Kγ were 1 nM, 1 nM and 600 nM, respectively.

With `CC[C@H](Nc1nc(N)nc(N)c1C#N)c1nc2c(C)cccc2c(=O)n1-c1cn[nH]c1` [Compound 33, (S)-2,4-diamino-6-((1-(8-methyl-4-oxo-3-(1H-pyrazol-4-yl)-3,4-dihydroquinazolin-2-yl)propyl)amino)pyrimidine-5-carbonitrile], the IC50 against PI3Kβ was found to be 84 nM; on PI3Kδ, 22 nM; on PI3Kγ, 2000 nM.

As for `CC[C@H](Nc1nc(N)nc(N)c1C#N)c1nc2c(C)cccc2c(=O)n1-c1cc[nH]n1` [Compound 34, (S)-2,4-diamino-6-((1-(8-methyl-4-oxo-3-(1H-pyrazol-3-yl)-3,4-dihydroquinazolin-2-yl)propyl)amino)pyrimidine-5-carbonitrile], the IC50 against PI3Kβ was 7 nM; on PI3Kδ it was 8 nM; on PI3Kγ it was 6100 nM.

Consider `CC[C@H](Nc1nc(N)nc(N)c1C#N)c1nc2c(C)ccc(F)c2c(=O)n1-c1cn[nH]c1` [Compound 35, (S)-2,4-diamino-6-((1-(5-fluoro-8-methyl-4-oxo-3-(1H-pyrazol-4-yl)-3,4-dihydroquinazolin-2-yl)propyl)amino)pyrimidine-5-carbonitrile], for which the IC50 against PI3Kβ amounted to 21 nM; at PI3Kδ, 10 nM; on PI3Kγ, 1400 nM.

With `CC[C@H](Nc1nc(N)nc(N)c1C#N)c1nc2c(C)ccc(F)c2c(=O)n1-c1cc[nH]n1` [Compound 36, (S)-2,4-diamino-6-((1-(5-fluoro-8-methyl-4-oxo-3-(1H-pyrazol-3-yl)-3,4-dihydroquinazolin-2-yl)propyl)amino)pyrimidine-5-carbonitrile], the values for the IC50 against PI3Kβ, on PI3Kδ and at PI3Kγ were 2 nM, 5 nM and 4100 nM, respectively.

Consider `O=c1c2c(Cl)ccc(Cl)c2nc([C@@H](Nc2ncnc3scnc23)C2CC2)n1-c1cc[nH]n1` [Compound 37, (S)-5,8-dichloro-2-(cyclopropyl(thiazolo[5,4-d]pyrimidin-7-ylamino)methyl)-3-(1H-pyrazol-3-yl)quinazolin-4(3H)-one], for which the IC50 on PI3Kβ was 1 nM; on PI3Kδ it was 0.6 nM; on PI3Kγ it was 5100 nM.

On to `O=c1c2c(Cl)ccc(Cl)c2nc([C@@H](Nc2ncnc3scnc23)C2CC2)n1-c1cn[nH]c1` [Compound 38, (S)-5,8-dichloro-2-(cyclopropyl(thiazolo[5,4-d]pyrimidin-7-ylamino)methyl)-3-(1H-pyrazol-4-yl)quinazolin-4(3H)-one], for which the 50% inhibitory concentration (IC50) on PI3Kβ is 9 nM; at PI3Kδ, 4 nM; at PI3Kγ, 1100 nM.

Take `CC[C@H](Nc1ncnc2scnc12)c1nc2c(Cl)ccc(Cl)c2c(=O)n1-c1cn[nH]c1` [Compound 39, (S)-5,8-dichloro-3-(1H-pyrazol-4-yl)-2-(1-(thiazolo[5,4-d]pyrimidin-7-ylamino)propyl)quinazolin-4(3H)-one]: the IC50 against PI3Kβ amounted to 170 nM; at PI3Kδ, 22 nM; on PI3Kγ it was 4700 nM.

As for `CC[C@H](Nc1ncnn2ccnc12)c1nc2c(Cl)ccc(Cl)c2c(=O)n1-c1cn[nH]c1` [Compound 40, (S)-5,8-dichloro-2-(1-(imidazo[2,1-f][1,2,4]triazin-4-ylamino)propyl)-3-(1H-pyrazol-4-yl)quinazolin-4(3H)-one], the IC50 against PI3Kβ was 280 nM; against PI3Kδ, 38 nM; at PI3Kγ it was 8700 nM.

Turning to `CC[C@H](Nc1ncnc2cccnc12)c1nc2c(Cl)ccc(Cl)c2c(=O)n1-c1cn[nH]c1` [Compound 41, (S)-5,8-dichloro-3-(1H-pyrazol-4-yl)-2-(1-(pyrido[3,2-d]pyrimidin-4-ylamino)propyl)quinazolin-4(3H)-one], the half-inhibitory concentration (IC50) at PI3Kβ stood at 88 nM; against PI3Kδ, 13 nM; on PI3Kγ it was 1600 nM.
